Test results reported in US6177475A, “Methods of using integrin modulators for treatment of inflammation” (priority 1997, dated 2001).
pIC50: −log10 of the molar value. Like-named read-outs stand apart in the source and are kept apart here.

Key:
HIV-1 strain IIIB = assay: Protection of MT-4 cells against infection with free HIV (PCR for proviral DNA); type: cell-based; details: Human immunodeficiency virus 1, IIIB, MT4, 16 hours
Description: The effect of Ajoene in protecting against HIV infection was evaluated using polymerase chain reaction (PCR) analysis which recognized amplified DNA sequences of HIV gag gene. MT-4 cells were used as target cells and strain IIIB of HIV-1 was used as inoculate. Serial dilutions of Ajoene or an equivalent volume of its vehicle were added to MT-4 cells, followed by addition of a sufficient amount of free virus (≥10^3 particles per cell). The protective effect of Ajoene was monitored by examining for the absence or presence of proviral HIV DNA in target cells 16 hours after the inoculation.

[1] = test system: H9RF cells / H9 cells (HIV-1RF); assay: HIV-induced syncytium formation, H9RF donor with H9 recipient; type: cell-based
Text: For curve 1, the effect of Ajoene on the fusion of cultured, intact H9 cells with HIV infected H9RF cells is disclosed. For this curve, the vertical graph axis pertains to the maximum amount of syncytia formed in the absence of Ajoene (100 percent), while the points on line 1 represent percentages of such an amount of syncytia formed in the presence of varying concentrations of Ajoene (micromoles per liter).
Chronically infected and uninfected cell lines (HIV donors and targets, respectively) were maintained as suspension cultures in RPNI-1640 medium supplemented with 10% (v/v) heat-inactivated fetal calf serum, 50 micrograms/ml gentamycin and 2 mM L-glutamine. HIV donors used were (1) a cloned population of H9 cells harboring the genome of HIV-1RF (H9RF cells); and (2) a cloned population of SupT1 cells harboring the genome of HIV-1LAV-BRU (SupT1LAV-BRU cells). To assess the effect of Ajoene on syncytium formation, the donors were mixed with their respective recipients, H9 and SupT1, at a ratio of 1:2 in 96-well flat-bottomed plates (3×10^5 cells per well). Log 10 dilutions of Ajoene were then introduced into the wells, and the cells were cocultured for 16 h. Control wells received the vehicle of Ajoene. By the end of the incubation period syncytia were counted, and the values of IC50 for Ajoene were calculated by plotting relative amounts of syncytia (percent of the syncytia formed in the absence of the compound) against Ajoene concentration.

[2] = test system: HIV-1LBi (HIV-infected MOLT-4 cells, syncytiotrophoblasts); assay: Lymphocyte-mediated HIV infection of syncytiotrophoblasts; type: cell-based; details: 200 micromoles per liter, 24 hours, virtually all colonies
Text: (§1) Human fetal placental epithelial cells, known as syncytiotrophoblasts, were organized in a monolayer and exposed to HIV-infected lymphocytic cells and, as a negative control, to uninfected cells of the same type. This experimental system, closely simulating the actual conditions under which syncytiotrophoblasts would be exposed to HIV-infected cells in vivo, was used to assess integrin-modulating effects of Ajoene.
In order to assess the ability of Ajoene to inhibit lymphocyte-mediated HIV infection of syncytiotrophoblasts, HIV-1LBi -infected MOLT-4 cells were added to adherent cultures of uninfected syncytiotrophoblasts in the presence and absence of Ajoene. Various additional control conditions were also established. First, some wells received filtered (0.45 micrometer) supernatant of cell-free HIV from infected cell cultures. Yet other negative controls included syncytiotrophoblasts cultured alone and syncytiotrophoblasts cultured with uninfected MOLT-4 cells. After 24 hours, the cocultures were washed to removed unbound lymphocytes, fixed, permeabilized, stained for viral core antigens (p24 and p55), and viewed under a fluorescence microscope.

[3] = test system: MOLT-4 cells / syncytiotrophoblasts; assay: Adhesion of uninfected MOLT-4 clone 8 cells to syncytiotrophoblasts; type: cell-based, human
Text: as §1
MOLT-4 clone 8 cells were labeled with calcein-AM, pretreated with different concentrations of Ajoene (0-200 micromoles per liter) and incubated with cultured term syncytiotrophoblast cells at 37° C. for one hour in the presence of Ajoene. Adhesion was measured directly as fluorescence units after background correction. Controls included measuring adhesion in the presence of the appropriate carrier solvent.

51Cr-labeled monocytes = assay: Monocyte recruitment to inflamed skin; type: in vivo, rat; details: 50 mg/kg i.v.; for Accumulation of 51Cr-labeled Monocytes (mean ± SEM): 2 h
Text: Chemotactic factors (e.g., C5adesArg) and cytokines, such as tumor necrosis factor α (TNF) or interferon gamma (IFN), induce rapid cutaneous inflammatory reactions, when injected intradermally. These inflammatory reactions are characterized by integrin-mediated migration of ^51 Cr-labeled monocytes and ^111 In-labeled neutrophils. The mechanisms of leukocyte recruitment to the inflammatory loci differ, however, in that chemotactic factors act primarily on leukocytes (by upregulating integrins), whereas TNF and IFN activate endothelial cells (which results, inter alia, in rapid expression of integrin ligands, such as ICAM-1 and VCAM-1).
Agents used for the induction of the inflammation included rat IFN, recombinant mouse TNF (Genentech, South San Francisco, Calif.), and Zymozan-activated serum (ZAS). ZAS, a source of C5adesArg, was generated by activating complement in normal rat serum with 5 mg/ml of Zymozan A (Sigma Chemical Company, St. Louis, Mo.) at 37° C. for 60 min, after which the zymozan was removed.
Rat monocytes and neutrophils were isolated and labeled as described in Example 6, supra. Male Lewis rats were administered intravenously with 50 mg/kg Ajoene (treatment group) or its vehicle (control), followed within 2-3 min by infusion of the labeled cells. Immediately afterwards, the skin on the back of all animals was shaved and the inflammatory stimuli and the diluent control were injected intradermally at several sites of the skin of each animal. Two hours later, 1 ml of blood was taken from each rat, and the animals were sacrificed. The dorsal skin, including the area of dermal inflammatory reactions, was removed and frozen, and the injected skin sites were punched out with a 12-mm punch and counted in a gamma spectrometer (model 1280, LXB Instruments).

C=CCSSC=CC[S+]([O-])CC=C (stereo not drawn) [Ajoene, 4,5,9-trithiadodeca-1,6,11-triene-9-oxide]
pIC50 (HIV-1 strain IIIB): 5.30 | IC100 (HIV-1 strain IIIB; read-out: minimal dose completely preventing HIV infection): 17 µM | syncytia found (FIG. 1, curve 1) ([1]; 50 micromoles of Ajoene per liter): Essentially no syncytia were found | pIC50 ([1]; Human immunodeficiency virus 1, H9, 16 h incubation, both donor/recipient systems, read-out: IC50 range for fusion and syncytium formation): 7.30 to 8.30 | pIC50 ([1]; Human immunodeficiency virus 1, H9RF donor, H9 recipient, 16 h, read-out: IC50 of Ajoene, syncytium formation): ~7.30 | pIC50 ([1]; Human immunodeficiency virus 1, H9 with H9RF cells, read-out: IC50 of syncytium formation (FIG. 1, curve 1)): 7.35 | prevention of lymphocyte-mediated HIV infection of syncytiotrophoblasts [2]: totally prevented | inhibition of adhesion of MOLT-4 cells to syncytiotrophoblasts ([3]; 200 micromoles per liter): 100% | pIC50 ([3]; Homo sapiens, MOLT-4, 1 hour, 37° C., cells not infected with HIV): 4.22 | Accumulation of 51Cr-labeled Monocytes (mean ± SEM) (51Cr-labeled monocytes; 10 ng TNF, P < 0.002): 1,274 cpm per inflammatory locus | inhibition of monocyte migration to loci of acute cutaneous inflammation (51Cr-labeled monocytes): 50-75% | Accumulation of 51Cr-labeled Monocytes (mean ± SEM) (51Cr-labeled monocytes; 25% ZAS, P < 0.020): 944 cpm per inflammatory locus | Accumulation of 51Cr-labeled Monocytes (mean ± SEM) (51Cr-labeled monocytes; 50% ZAS, P < 0.002): 1,268 cpm per inflammatory locus | Accumulation of 51Cr-labeled Monocytes (mean ± SEM) (51Cr-labeled monocytes; 300 U IFN, P < 0.001): 468 cpm per inflammatory locus | Accumulation of 51Cr-labeled Monocytes (mean ± SEM) (51Cr-labeled monocytes; diluent control stimulus, N.S.): 15 cpm per inflammatory locus
